This test concerns CEM cells HIV-1 protection, formazan growth assay. As to the kind of experiment: NCI AIDS Antiviral Assay. To be noted: for IC50: measured here: growth of uninfected CEM cells. The method, boiled down: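 Human CEM cells, uninfected and HIV-1-infected, received five drug concentrations, and growth was read by soluble formazan assay. Compounds giving at least 50% protection were retested; reproducible 100% protection defined confirmed active.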

Activity calls are given as the source filed them.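 How the source made its calls: active means compounds giving half or more protection of infected cells from virus-caused growth loss, again on retest; inactive means the rest.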 Bounds are passed on as bounds.

Here are results for 28 compounds from PubChem BioAssay AID179 (DTP/NCI, 2004).

Broadly, the EC50 is the concentration that produces a half-maximal response. One may read the IC50 as the concentration that inhibits the measured activity by half. The low end stands for greater potency, the high end for weaker potency.

As to `CC1(C)C(=O)C(C)(C)C12SSC1(S2)C(C)(C)C(=O)C1(C)C`, the EC50 was over 200 µM and the IC50 was found to be 81.3 µM.
Regarding `CNC(=S)/N=C(\N)N(C)C`, the outcome was inactive.
With `C1CCC(CSSCC2(N3CCCC3)CCCCC2)(N2CCCC2)CC1`, the EC50 was over 200 µM and the IC50 is over 100 µM.
With `Cc1ccc(/C=C2\CCCCC2=O)cc1`, the result was inactive.
In the case of `CC[C@](C)(O)C(=O)O[C@H]1C(=O)O[C@@H]2C[C@H]3C(C)=CC(=O)[C@@H](O)[C@]3(C)[C@H]3[C@@]4(O)OC[C@]32[C@@H]1[C@@H](C)[C@H]4O`, the result was inactive.
With `CC1(C)OC(=O)C(=Cc2cccc(Cl)c2)C(=O)O1`, the EC50 was over 490 µM and the IC50 is over 200 µM.
Take `O=C(O)Cn1c(=O)[nH]c(=O)c2[nH]cnc21`: the EC50 was over 1200 µM and the IC50 was over 1200 µM.
As to `COc1cc2ccc3c4cc(OC)c(OC(C)C)cc4c[n+](C)c3c2cc1OC`, the EC50 was over 178 µM and the half-maximal inhibitory concentration (IC50) came to 174 µM.
The corresponding values for `CC(=O)OC(C)(C)/C=C/C(=O)[C@](C)(O)[C@H]1[C@H](O)C[C@@]2(C)[C@@H]3CC=C4[C@@H](C=C(OC5OC(CO)C(O)C(O)C5O)C(=O)C4(C)C)[C@]3(C)C(=O)C[C@]12C` (stereo partly specified) are over 200 µM and 9.77 µM.
For `Clc1ccc(CN2COc3c(ccc4ccccc34)C2)cc1`, in that order: over 200 µM and 70.8 µM.
For `Nc1ccccc1N1C(=O)C(Cl)=C(Cl)C1=O`, the result was inactive.
As to `N#CC(Cc1ccccc1)C(N)=O` (stereo unspecified), the EC50 is over 200 µM and the concentration for half-maximal inhibition (IC50) is over 200 µM.
With `COP1(=O)CC2C(Cl)(Cl)C2(C)C1` (stereo unspecified), the outcome was inactive.
Consider `Cc1cc(O)c2c(c1)C(C1OC(CO)C(O)C(O)C1O)c1cc(O)cc(O)c1C2=O` (stereo unspecified), for which the EC50 is over 200 µM and the half-maximal inhibitory concentration (IC50) is over 200 µM.
Turning to `COC(=O)C(CCCCCCCC(C(=O)OC)c1nc2n(c1O)C(=N)N=N2)c1nc2n(c1O)C(=N)N=N2` (stereo unspecified), the EC50 is over 7.41 µM and the IC50 is over 7.41 µM.
In the case of `CCCCCC=C(c1cc(Cl)c(OC)c(C(=O)N(C)C)c1)c1cc(Cl)c(OC)c(C(=O)N(C)C)c1`, the EC50 is over 36.3 µM and the IC50 was 21.4 µM.
With `O=C(O)CN1CCN2CCCCCCCCN(CC1)CCN(CC(=O)O)CC2`, the EC50 is over 200 µM and the half-inhibitory concentration (IC50) is 13.2 µM.
Take `C[C@H](CCCN1CCN(C)CC1)[C@H]1CC[C@H]2[C@@H]3CC[C@@H]4C[C@H](O)CC[C@]4(C)[C@H]3CC[C@]12C`: the EC50 was over 50.1 µM and the IC50 worked out at 3.09 µM.
For `S=c1sc2ccccc2n1CN1CCCC1`, in that order: over 200 µM and 102 µM.
`Cc1cccc(C)c1N/C(=N\Nc1c([N+](=O)[O-])cccc1[N+](=O)[O-])NC(=O)c1ccccc1C(=O)N/C(=N/Nc1c([N+](=O)[O-])cccc1[N+](=O)[O-])Nc1c(C)cccc1C`: the EC50 was over 200 µM and the IC50 is 69.2 µM.
The corresponding values for `CCCC1C(CC)C(NC)C(C#N)(C#N)C1(C#N)C#N` (stereo unspecified) are over 200 µM and 10.2 µM.
For `C=C(CC(=O)Nc1ccc(C(=O)OC)o1)C(=O)OC`, in that order: over 200 µM and 3.89 µM.
The corresponding values for `O=c1oc2ccc([N+](=O)[O-])cc2cc1Br` are over 145 µM and over 145 µM.
Turning to `Cc1nc(-c2cc3c(ccc4ccccc43)oc2=O)cs1`, the EC50 was over 100 µM and the IC50 was 95.5 µM.
For `CCCCCCCCCCCCOCCOCCOCCOCCOCCOCC(=O)NC(Cc1ccccc1)C(=O)Oc1ccc([N+](=O)[O-])cc1` (stereo unspecified), in that order: over 200 µM and 17.8 µM.
Turning to `CC(C)OC(=O)c1ccc(NCc2cc(O)ccc2O)cc1Cl`, the EC50 was over 200 µM and the IC50 turned out to be 3.63 µM.
For the compound `CC(C)CN(CC(C)C)C(=O)C(Br)C(Br)C(=O)O` (stereo unspecified), the EC50 is over 200 µM and the IC50 was found to be 91.2 µM.
As to `O=c1ccc2ccccc2n1Cc1ccc2ccccc2n1`, the EC50 was over 200 µM and the IC50 was determined as 148 µM.
